Laboratory results: ChEMBL document CHEMBL2440076, “New triarylpyrazoles as broad-spectrum anticancer agents: design, synthesis, and biological evaluation” (Eur J Med Chem, 2013)

Tests used:
Type in all cases: functional
U-251 = assay: Growth inhibition of human U251 cells assessed as cell growth at 10^-7 M after 48 hrs by sulforhodamine B assay; settings: U-251, 48 h, read-out: Activity
SF-268 = assay: Growth inhibition of human SF268 cells assessed as cell growth at 10^-7 M after 48 hrs by sulforhodamine B assay; settings: SF-268, 48 h, read-out: Activity
NCI-H460 = assay: Growth inhibition of human NCI-H460 cells assessed as cell growth at 10^-7 M after 48 hrs by sulforhodamine B assay; settings: NCI-H460, 48 h, read-out: Activity
HOP-92 = assay: Growth inhibition of human HOP92 cells assessed as cell growth at 10^-7 M after 48 hrs by sulforhodamine B assay; settings: HOP-92, 48 h, read-out: Activity
K562 = assay: Growth inhibition of human K562 cells assessed as cell growth at 10^-7 M after 48 hrs by sulforhodamine B assay; settings: K562, 48 h, read-out: Activity
HL-60(TB) [1] = assay: Growth inhibition of human HL-60(TB) cells assessed as cell growth at 10^-7 M after 48 hrs by sulforhodamine B assay; settings: HL-60, 48 h, read-out: Activity
T47D = assay: Growth inhibition of human T47D cells assessed as cell growth at 10^-8 M after 48 hrs by sulforhodamine B assay; settings: read-out: Activity
[2] = Growth inhibition of human Hs 578T cells assessed as cell growth at 10^-4 M after 48 hrs by sulforhodamine B assay; settings: read-out: Activity
SK-MEL-5 = assay: Growth inhibition of human SK-MEL-5 cells assessed as cell growth at 10^-4 M after 48 hrs by sulforhodamine B assay; settings: SK-MEL-5, 48 h, read-out: Activity
[3] = Growth inhibition of human HCC2998 cells assessed as cell growth at 10^-4 M after 48 hrs by sulforhodamine B assay; settings: HCC 2998, 48 h, read-out: Activity
PC-3 = assay: Growth inhibition of human PC3 cells assessed as cell growth at 10^-8 M after 48 hrs by sulforhodamine B assay; settings: PC-3, 48 h, read-out: Activity
TK-10 [4] = assay: Growth inhibition of human TK10 cells assessed as cell growth at 10^-8 M after 48 hrs by sulforhodamine B assay; settings: TK-10, 48 h, read-out: Activity
CAKI-1 [5] = assay: Growth inhibition of human CAKI-1 cells assessed as cell growth at 10^-8 M after 48 hrs by sulforhodamine B assay; settings: CAKI-1, 48 h, read-out: Activity
ACHN [6] = assay: Growth inhibition of human ACHN cells assessed as cell growth at 10^-8 M after 48 hrs by sulforhodamine B assay; settings: read-out: Activity
[7] = Growth inhibition of human NCI-ADR-RES cells assessed as cell growth at 10^-8 M after 48 hrs by sulforhodamine B assay; settings: read-out: Activity
OVCAR-8 [8] = assay: Growth inhibition of human OVCAR8 cells assessed as cell growth at 10^-8 M after 48 hrs by sulforhodamine B assay; settings: OVCAR-8, 48 h, read-out: Activity
OVCAR-3 = assay: Growth inhibition of human OVCAR3 cells assessed as cell growth at 10^-8 M after 48 hrs by sulforhodamine B assay; settings: OVCAR-3, 48 h, read-out: Activity
LOX IMVI = assay: Growth inhibition of human LOXIMVI cells assessed as cell growth at 10^-8 M after 48 hrs by sulforhodamine B assay; settings: read-out: Activity
SW-620 = assay: Growth inhibition of human SW620 cells assessed as cell growth at 10^-8 M after 48 hrs by sulforhodamine B assay; settings: SW-620, 48 h, read-out: Activity
HL-60(TB) [9] = assay: Growth inhibition of human HL-60(TB) cells assessed as cell growth at 10^-8 M after 48 hrs by sulforhodamine B assay; settings: HL-60, 48 h, read-out: Activity
NCI-H226 = assay: Growth inhibition of human NCI-H226 cells assessed as cell growth at 10^-4 M after 48 hrs by sulforhodamine B assay; settings: NCI-H226, 48 h, read-out: Activity
A549 [10] = assay: Growth inhibition of human A549/ATCC cells assessed as cell growth at 10^-4 M after 48 hrs by sulforhodamine B assay; settings: A549, 48 h, read-out: Activity
BT-549 [11] = assay: Growth inhibition of human BT549 cells assessed as cell growth at 10^-5 M after 48 hrs by sulforhodamine B assay; settings: BT-549, 48 h, read-out: Activity
[12] = Growth inhibition of human Hs 578T cells assessed as cell growth at 10^-5 M after 48 hrs by sulforhodamine B assay; settings: read-out: Activity
CAKI-1 [13] = assay: Growth inhibition of human CAKI-1 cells assessed as cell growth at 10^-5 M after 48 hrs by sulforhodamine B assay; settings: CAKI-1, 48 h, read-out: Activity
HT-29 = assay: Growth inhibition of human HT-29 cells assessed as cell growth at 10^-5 M after 48 hrs by sulforhodamine B assay; settings: HT-29, 48 h, read-out: Activity
NCI-H23 = assay: Growth inhibition of human NCI-H23 cells assessed as cell growth at 10^-5 M after 48 hrs by sulforhodamine B assay; settings: NCI-H23, 48 h, read-out: Activity
A498 = assay: Growth inhibition of human A498 cells assessed as cell growth at 10^-6 M after 48 hrs by sulforhodamine B assay; settings: A498, 48 h, read-out: Activity
ACHN [14] = assay: Growth inhibition of human ACHN cells assessed as cell growth at 10^-6 M after 48 hrs by sulforhodamine B assay; settings: read-out: Activity
OVCAR-8 [15] = assay: Growth inhibition of human OVCAR8 cells assessed as cell growth at 10^-6 M after 48 hrs by sulforhodamine B assay; settings: OVCAR-8, 48 h, read-out: Activity
IGROV-1 = assay: Growth inhibition of human IGROV1 cells assessed as cell growth at 10^-6 M after 48 hrs by sulforhodamine B assay; settings: IGROV-1, 48 h, read-out: Activity
SF-295 = assay: Growth inhibition of human SF295 cells assessed as cell growth at 10^-6 M after 48 hrs by sulforhodamine B assay; settings: SF-295, 48 h, read-out: Activity
HCT-116 = assay: Growth inhibition of human HCT116 cells assessed as cell growth at 10^-6 M after 48 hrs by sulforhodamine B assay; settings: HCT-116, 48 h, read-out: Activity
A549 [16] = assay: Growth inhibition of human A549/ATCC cells assessed as cell growth at 10^-6 M after 48 hrs by sulforhodamine B assay; settings: A549, 48 h, read-out: Activity
BT-549 [17] = assay: Growth inhibition of human BT549 cells assessed as cell growth at 10^-7 M after 48 hrs by sulforhodamine B assay; settings: BT-549, 48 h, read-out: Activity
[18] = Growth inhibition of human Hs 578T cells assessed as cell growth at 10^-7 M after 48 hrs by sulforhodamine B assay; settings: read-out: Activity
TK-10 [19] = assay: Growth inhibition of human TK10 cells assessed as cell growth at 10^-7 M after 48 hrs by sulforhodamine B assay; settings: TK-10, 48 h, read-out: Activity
OVCAR-8 [20] = assay: Growth inhibition of human OVCAR8 cells assessed as cell growth at 10^-7 M after 48 hrs by sulforhodamine B assay; settings: OVCAR-8, 48 h, read-out: Activity

| SMILES | growth at 0.1 µM (U-251) [%] | growth at 0.1 µM (SF-268) [%] | growth at 0.1 µM (NCI-H460) [%] | growth at 0.1 µM (HOP-92) [%] | growth at 0.1 µM (K562) [%] | growth at 0.1 µM (HL-60(TB) [1]) [%] | growth at 0.01 µM (T47D) [%] | growth at 100 µM [2] [%] | growth at 100 µM (SK-MEL-5) [%] | growth at 100 µM [3] [%] | growth at 0.01 µM (PC-3) [%] | growth at 0.01 µM (TK-10 [4]) [%] | growth at 0.01 µM (CAKI-1 [5]) [%] | growth at 0.01 µM (ACHN [6]) [%] | growth at 0.01 µM [7] [%] | growth at 0.01 µM (OVCAR-8 [8]) [%] | growth at 0.01 µM (OVCAR-3) [%] | growth at 0.01 µM (LOX IMVI) [%] | growth at 0.01 µM (SW-620) [%] | growth at 0.01 µM (HL-60(TB) [9]) [%] | further results |
| --- | --- | --- | --- | --- | --- | --- | --- | --- | --- | --- | --- | --- | --- | --- | --- | --- | --- | --- | --- | --- | --- |
| COc1cc(-c2nn(-c3cccc(NC(=O)c4ccccc4)c3)cc2-c2ccncc2)ccc1Cl | 98 | 94 | 99 | 86 | 99 | 100 | 97 | 32 | -85 | -13 | 94 | 93 | 94 | 101 | 98 | 98 | 103 | 94 | 96 | 96 | growth at 100 µM (NCI-H226): 24%; growth at 100 µM (A549 [10]): 6%; growth at 10 µM (BT-549 [11]): 26%; growth at 10 µM [12]: 18%; growth at 10 µM (CAKI-1 [13]): 14%; growth at 10 µM (HT-29): 7%; growth at 10 µM (NCI-H23): 21%; growth at 1 µM (A498): 19%; growth at 1 µM (ACHN [14]): 44%; growth at 1 µM (OVCAR-8 [15]): 50%; growth at 1 µM (IGROV-1): 35%; growth at 1 µM (SF-295): 15%; growth at 1 µM (HCT-116): 31%; growth at 1 µM (A549 [16]): 37%; growth at 0.1 µM (BT-549 [17]): 88%; growth at 0.1 µM [18]: 97%; growth at 0.1 µM (TK-10 [19]): 97%; growth at 0.1 µM (OVCAR-8 [20]): 105% |
| COc1cc(-c2nn(-c3cccc(NC(=O)c4ccc(N5CCOCC5)c(C(F)(F)F)c4)c3)cc2-c2ccncc2)ccc1Cl | 88 | 91 | 88 | 56 | 29 | 73 | 102 | 14 | -85 | -46 | 92 | 99 | 94 | 102 | 102 | 98 | 110 | 98 | 99 | 109 | growth at 100 µM (NCI-H226): 16%; growth at 100 µM (A549 [10]): 4%; growth at 10 µM (BT-549 [11]): 25%; growth at 10 µM [12]: 3%; growth at 10 µM (CAKI-1 [13]): -2%; growth at 10 µM (HT-29): -43%; growth at 10 µM (NCI-H23): 4%; growth at 1 µM (A498): 1%; growth at 1 µM (ACHN [14]): 39%; growth at 1 µM (OVCAR-8 [15]): 30%; growth at 1 µM (IGROV-1): 33%; growth at 1 µM (SF-295): 4%; growth at 1 µM (HCT-116): 33%; growth at 1 µM (A549 [16]): 31%; growth at 0.1 µM (BT-549 [17]): 95%; growth at 0.1 µM [18]: 81%; growth at 0.1 µM (TK-10 [19]): 106%; growth at 0.1 µM (OVCAR-8 [20]): 91% |
